Assay results published in US4481203A, “Composition containing 1-(n-hexylcarbamoyl)-5-fluorouracil and uracil” (priority 1977, dated 1984).
Read-outs that look alike come from different tables or passages of the source.

What was measured:
[1] = test system: AH-130; test: Effects of Preparations 1 to 8 on AH-130 (Table 4); format: in vivo, male Donryu rats
From the text: (§1) Ascites cells (5×10^6) of AH-130, are subcutaneously transplanted in the armpit of male Donryu rats weighing about 200 g (ten rats in each group). […] Twenty-four hours after the transplantation and during the following seven consecutive days the suspension is orally given to the animal once every day at the dose listed in Table 2. On the 10th day after the transplantation, the tumor is removed from the body and weighed to calculate the average weight (T) of the tumors in the group to which the composition has been given and the corresponding weight (C) in the control group to determine the ratio T/C.
(4) Compositions formulated according to Preparations 1 to 8 given above are tested by the foregoing method for effects on AH-130.

[2] = in vivo; design: species or system male rats of Donryu strain; details: rat, po, Concentration of 5-fluorouracil in blood
From the text: Ascites cells (5×10^6) of AH-130 are subcutaneously transplanted in the armpit portion of male rats of Donryu strain weighing about 200 g. Seven days thereafter, the rats with cancer cells weighing at least 2 g are used, five rats in each group.
Two, four and eight hours after the administration, the blood serum and cancer tissue homogenate are collected, each of which is acidified with hydrochloric acid and extracted with chloroform. The resulting aqueous layer is examined for antibiotic activity according to the thin-cup method (Media Circle, Vol. 92, p. 259, 1967) with use of Staphylococcus aureus 209P strain.

[3] = test system: AH-130; test: Anti-cancer effect (T/C) on subcutaneously transplanted AH-130, oral administration (Table 2); format: in vivo, male Donryu rats
From the text: (2) Determination of effects
as §1

[4] = background; cited from earlier work
[5] = test system: mice; test: in vivo; format: in vivo; details: oral, 30240 min
Method: (§2) (5) The anti-cancer compositions of this invention are tested in mice by the following methods to determine acute toxicity, therapeutic effect and theapeutic index.
(§3) Male mice of ICR strain weighing 22±1 g are used, 5 mice in each group. […] Over the following period of three weeks the mice are checked every day for poisoning, body weight and mortality. The LD50 is determined according to the up-and-down method 3 weeks after the administration.

[6] = in vivo; format: in vivo; details: mouse, in vivo, po, mice
Method: as §2, §3

[7] = test system: sarcoma 180; test: Therapeutic effect on sarcoma 180 transplanted in mice (Table 5); format: in vivo, male mice of ICR strain; details: oral, 14400 min
Method: as §2
Tissues of sarcoma 180, 2×10^6, are subcutaneously transplanted in the back of male mice of ICR strain (6 mice in each group). […] Twenty-four hours after the transplantation and during the following seven consecutive days the suspension is orally given to the animal once every day.

[8] = test system: sarcoma 180; test: Therapeutic index (LD50/ED50) in mice (Table 5); format: in vivo, male mice of ICR strain; details: oral
From the text: The LD50 and ED50 values obtained above are used to determine the therapeutic index (LD50 /ED50).

[9] = Rattus norvegicus, po, 240 h, read-out: Anti-cancer effect (T/C)
[10] = uracil (b)/(a) mol ratio 0, as amount of 5-fluorouracil (a)
[11] = uracil (b)/(a) mol ratio 2.5, as amount of 5-fluorouracil (a)
[12] = uracil (b)/(a) mol ratio 10, as amount of 5-fluorouracil (a)
[13] = Rattus norvegicus, po, 240 h; read-out: Anti-cancer effect (T/C)
[14] = oral, 5-fluorouracil (a) 0.5 m.mol/kg + uracil 0.1 m.mol/kg
[15] = oral, 5-fluorouracil (a) 0.5 m.mol/kg + uracil 0.2 m.mol/kg
[16] = oral, 5-fluorouracil (a) 0.5 m.mol/kg + uracil 0.5 m.mol/kg
[17] = oral, 5-fluorouracil (a) 0.5 m.mol/kg + uracil 1 m.mol/kg

Structure (SMILES) | LD50 at 504 h [6, 12] [mg/kg] | ED50 [7, 10] [mg/kg] | ED50 [7, 11] [mg/kg] | ED50 [7, 12] [mg/kg] | response vs control in vivo at 500 µmol/kg [3, 13] [%] | Anti-cancer effect (T/C) [3, 15] | Anti-cancer effect (T/C) [3, 16] | Anti-cancer effect (T/C) [3, 17] | Therapeutic index (LD50/ED50) ([8]; uracil (b)/(a) mol ratio 0) | Therapeutic index (LD50/ED50) ([8]; uracil (b)/(a) mol ratio 2.5) | Therapeutic index (LD50/ED50) ([8]; uracil (b)/(a) mol ratio 10) | LD50 at 504 h [6, 10] [mg/kg] | LD50 at 504 h [6, 11] [mg/kg] | further results
O=c1[nH]cc(F)c(=O)[nH]1 [Compound 1, 5-Fluorouracil] | 97 | 18.5 | 8.5 | 6.0 |  |  |  |  |  |  |  |  |  | Anti-cancer effect (control) (T/C) ([1]; I.v., Compd. 1 10 mg/kg, formulated as Preparation 6 but no uracil): 0.66; concentration at 4 h [2]: 20 ng/mL; response vs control in vivo at 80 µmol/kg [3, 9]: 69%; Anti-cancer effect (T/C) ([3]; oral, 5-fluorouracil (a) 0.08 m.mol/kg + uracil 0.08 m.mol/kg): 0.59; Anti-cancer effect (T/C) ([3]; oral, 5-fluorouracil (a) 0.08 m.mol/kg + uracil 0.16 m.mol/kg): 0.32; toxicity and side effects [4]: high toxicity and marked side effects; LD50 [5, 10]: 115 mg/kg; LD50 [5, 11]: 115 mg/kg
O=c1[nH]c(=O)n(C2CCCO2)cc1F (stereo not shown) [Compound 2, 1-(2-Tetrahydrofuryl)-5-fluorouracil, reference compound] |  | 140 | 20 | 11 | 65 | 0.23 | 0.17 | 0.06 |  |  |  |  |  | Anti-cancer effect (control) (T/C) ([1]; I.v., Compd. 2 100 mg/kg, formulated as Preparation 7 but no uracil): 0.61; Anti-cancer effect (control) (T/C) ([1]; oral, Compd. 2 100 mg/kg, formulated as Preparation 1 but no uracil): 0.68; Anti-cancer effect (control) (T/C) ([1]; via anus, Compd. 2 100 mg/kg, formulated as Preparation 8 but no uracil): 0.51; Anti-cancer effect (T/C) ([3]; oral, 5-fluorouracil (a) 0.5 m.mol/kg + uracil 0.05 m.mol/kg): 0.49; Anti-cancer effect (T/C) [3, 14]: 0.30
O=c1c(F)cn(C2CCCO2)c(=O)n1C1CCCO1 (stereo not shown) [Compound 3, 1,3-bis(2-Tetrahydrofuryl)-5-fluorouracil] | 1160 | 118 | 63 | 27 | 24 | 0.18 | 0.12 | 0.08 | 18.8 | 30.1 | 42.9 | 2220 | 1890 | Anti-cancer effect (control) (T/C) ([1]; oral, Compd. 3 120 mg/kg, formulated as Preparation 2 but no uracil): 0.25; Anti-cancer effect (control) (T/C) ([1]; oral, Compd. 3 120 mg/kg, formulated as Preparation 4 but no uracil): 0.25
CCCCCCNC(=O)n1cc(F)c(=O)[nH]c1=O [Compound 4, 1-(n-Hexylcarbamoyl)-5-fluorouracil] | 644 | 60 | 24 | 20 |  | 0.21 | 0.15 | 0.12 | 21.0 | 40.8 | 32.2 | 1260 | 980 | Anti-cancer effect (control) (T/C) ([1]; oral, Compd. 4 50 mg/kg, formulated as Preparation 3 but no uracil): 0.45; response vs control in vivo at 500 µmol/kg [3, 9]: 39%
CCOCn1cc(F)c(=O)[nH]c1=O [Compound 5, 1-Ethoxymethyl-5-fluorouracil] | 191 |  | 26 | 13 | 68 | 0.33 | 0.19 | 0.08 |  |  |  | 1000 | 446 | Anti-cancer effect (control) (T/C) ([1]; oral, Compd. 5 100 mg/kg, formulated as Preparation 5 but no uracil): 0.72
O=c1[nH]cc(F)c(=O)n1C1CCCO1 (stereo not shown) [Compound 7, 3-(2-Tetrahydrofuryl)-5-fluorouracil] | 381 | 78 | 29 | 16 | 20 |  | 0.06 |  | 13.1 | 23.7 | 23.8 | 1020 | 687 | Anti-cancer effect (T/C) [3, 14]: 0.12
O=c1[nH]c(=O)n(S(=O)(=O)c2ccccc2)cc1F [Compound 8, 1-Benzenesulfonyl-5-fluorouracil] | 427 | 234 | 88 | 48 | 48 |  | 0.21 |  |  |  |  | 1170 | 973 | Anti-cancer effect (T/C) [3, 14]: 0.39
CCOC(=O)n1cc(F)c(=O)[nH]c1=O [Compound 9, 1-Ethoxycarbonyl-5-fluorouracil] | 179 | 101 | 39 | 28 |  |  | 0.06 |  | 3.3 | 6.9 | 6.4 | 332 | 269 | response vs control in vivo at 500 µmol/kg [3, 9]: 22%
CCCC(=O)n1cc(F)c(=O)[nH]c1=O [Compound 10, 1-(n-Butyryl)-5-fluorouracil] |  | 111 | 37 | 28 | 38 |  | 0.11 |  |  |  |  |  |  | 
CCCCn1cc(F)c(=O)[nH]c1=O [Compound 11, 1-(n-Butyl)-5-fluorouracil] | 358 | 186 | 88 | 49 | 77 |  | 0.53 |  | 4.7 | 8.2 | 7.3 | 867 | 723 | 
Fc1cnc(OCc2ccccc2)nc1OCc1ccccc1 [Compound 12, 2,4-Dibenzyl-5-fluorouracil] |  | 362 | 224 | 163 | 55 |  | 0.41 |  |  |  |  |  |  | 
O=c1cc[nH]c(=O)[nH]1 [uracil (b), uracil] |  |  |  |  |  |  |  |  |  |  |  |  |  | effect (T/C) ([3]; oral, uracil (b) alone 1 m.mol/kg): 0.96; anti-cancer effect of uracil itself ([3]; uracil (b) itself): no anti-cancer effect whatever
